{"source": "ChEMBL document CHEMBL1201862", "about": "“PubChem BioAssay data set” (2004)", "key": {"Procathepsin L": {"biological_target": "Procathepsin L (Homo sapiens, UniProt P07711)", "sequence (P07711 whole entry)": "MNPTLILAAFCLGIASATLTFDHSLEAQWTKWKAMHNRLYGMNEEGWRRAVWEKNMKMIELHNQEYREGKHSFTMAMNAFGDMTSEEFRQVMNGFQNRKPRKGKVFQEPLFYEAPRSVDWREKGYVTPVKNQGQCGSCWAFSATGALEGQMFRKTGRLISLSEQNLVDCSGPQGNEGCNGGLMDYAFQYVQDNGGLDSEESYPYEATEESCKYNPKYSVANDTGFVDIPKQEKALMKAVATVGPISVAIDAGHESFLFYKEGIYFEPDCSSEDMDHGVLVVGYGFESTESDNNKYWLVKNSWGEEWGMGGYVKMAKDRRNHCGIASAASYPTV"}, "Aspartyl aminopeptidase": {"biological_target": "T1, Aspartyl aminopeptidase (Plasmodium falciparum 3D7, UniProt Q8I2J3)", "T1 sequence (Q8I2J3 whole entry)": "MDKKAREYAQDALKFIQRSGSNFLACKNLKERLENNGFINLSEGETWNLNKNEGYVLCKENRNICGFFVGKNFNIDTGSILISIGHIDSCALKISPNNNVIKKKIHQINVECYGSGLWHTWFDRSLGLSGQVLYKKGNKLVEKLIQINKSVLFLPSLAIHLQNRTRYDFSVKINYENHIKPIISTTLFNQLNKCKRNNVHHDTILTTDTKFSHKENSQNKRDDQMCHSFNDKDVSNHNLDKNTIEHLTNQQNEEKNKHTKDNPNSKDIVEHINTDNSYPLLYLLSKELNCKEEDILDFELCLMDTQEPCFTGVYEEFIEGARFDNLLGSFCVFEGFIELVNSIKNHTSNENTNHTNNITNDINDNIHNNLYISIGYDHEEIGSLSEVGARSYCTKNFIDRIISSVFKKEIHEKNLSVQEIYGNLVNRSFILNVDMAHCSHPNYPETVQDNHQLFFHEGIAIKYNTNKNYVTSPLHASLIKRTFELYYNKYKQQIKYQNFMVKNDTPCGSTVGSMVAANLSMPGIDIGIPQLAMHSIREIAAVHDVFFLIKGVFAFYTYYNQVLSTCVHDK"}, "[1]": {"assay": "antiviral protection against BTV-induced cell death – arbovirus, BSR cells, confirmation (AID 1250);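 further: protection from viral cytopathic effect measured as cell viability by ATP luminescence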", "type": "functional"}, "Beta-galactosidase": {"biological_target": "Beta-galactosidase (Escherichia coli, UniProt Q8VNN2)", "sequence (Q8VNN2 whole entry)": "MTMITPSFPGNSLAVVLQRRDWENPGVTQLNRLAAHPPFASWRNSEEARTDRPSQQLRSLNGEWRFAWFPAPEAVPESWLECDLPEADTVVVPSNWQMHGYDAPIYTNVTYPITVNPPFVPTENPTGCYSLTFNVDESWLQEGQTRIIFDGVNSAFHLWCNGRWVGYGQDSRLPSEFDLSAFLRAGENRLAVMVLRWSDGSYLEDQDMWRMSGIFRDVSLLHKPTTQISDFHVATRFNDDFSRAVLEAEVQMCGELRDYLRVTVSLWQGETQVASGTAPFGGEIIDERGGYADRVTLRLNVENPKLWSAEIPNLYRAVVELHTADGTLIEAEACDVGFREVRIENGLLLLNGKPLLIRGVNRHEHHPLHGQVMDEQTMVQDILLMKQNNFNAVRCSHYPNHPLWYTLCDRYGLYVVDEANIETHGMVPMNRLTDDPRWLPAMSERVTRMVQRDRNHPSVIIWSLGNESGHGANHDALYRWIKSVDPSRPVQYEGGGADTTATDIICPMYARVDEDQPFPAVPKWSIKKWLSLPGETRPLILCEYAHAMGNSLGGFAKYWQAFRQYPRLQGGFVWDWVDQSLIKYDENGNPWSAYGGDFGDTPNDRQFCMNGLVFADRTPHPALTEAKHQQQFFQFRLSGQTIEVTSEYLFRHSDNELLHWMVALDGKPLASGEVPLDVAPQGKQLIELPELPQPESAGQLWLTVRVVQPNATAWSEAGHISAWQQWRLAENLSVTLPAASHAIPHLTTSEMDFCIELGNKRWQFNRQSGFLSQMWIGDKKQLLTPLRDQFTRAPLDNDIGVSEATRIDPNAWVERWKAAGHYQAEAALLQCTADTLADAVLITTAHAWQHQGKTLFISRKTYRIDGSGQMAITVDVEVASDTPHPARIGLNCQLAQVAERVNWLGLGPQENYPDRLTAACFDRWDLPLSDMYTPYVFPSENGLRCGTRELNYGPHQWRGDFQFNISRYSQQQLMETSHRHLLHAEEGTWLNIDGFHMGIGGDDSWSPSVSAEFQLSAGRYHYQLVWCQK", "assay": "detection-enzyme interference by beta-gal modulators – biochemical, E. coli enzyme, set 3, artefact control for CCR6 antagonist project, dose response (AID 504712)", "type": "functional"}, "[2]": {"biological_target": "Glyceraldehyde-3-phosphate dehydrogenase (Homo sapiens, UniProt P04406)", "sequence (P04406 whole entry)": "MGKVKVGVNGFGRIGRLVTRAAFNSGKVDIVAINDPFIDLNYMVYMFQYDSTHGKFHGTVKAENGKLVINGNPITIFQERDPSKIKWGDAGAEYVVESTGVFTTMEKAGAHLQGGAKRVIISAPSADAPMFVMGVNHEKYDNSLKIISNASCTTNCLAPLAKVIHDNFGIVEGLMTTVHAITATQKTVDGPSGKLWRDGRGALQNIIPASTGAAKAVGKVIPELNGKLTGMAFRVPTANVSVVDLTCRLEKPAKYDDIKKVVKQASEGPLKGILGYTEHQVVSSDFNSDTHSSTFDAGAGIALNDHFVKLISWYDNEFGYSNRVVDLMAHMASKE"}, "[3]": {"biological_target": "T2, Alkaline phosphatase, tissue-nonspecific isozyme (Homo sapiens, UniProt P05186)", "T2 sequence (P05186 whole entry)": "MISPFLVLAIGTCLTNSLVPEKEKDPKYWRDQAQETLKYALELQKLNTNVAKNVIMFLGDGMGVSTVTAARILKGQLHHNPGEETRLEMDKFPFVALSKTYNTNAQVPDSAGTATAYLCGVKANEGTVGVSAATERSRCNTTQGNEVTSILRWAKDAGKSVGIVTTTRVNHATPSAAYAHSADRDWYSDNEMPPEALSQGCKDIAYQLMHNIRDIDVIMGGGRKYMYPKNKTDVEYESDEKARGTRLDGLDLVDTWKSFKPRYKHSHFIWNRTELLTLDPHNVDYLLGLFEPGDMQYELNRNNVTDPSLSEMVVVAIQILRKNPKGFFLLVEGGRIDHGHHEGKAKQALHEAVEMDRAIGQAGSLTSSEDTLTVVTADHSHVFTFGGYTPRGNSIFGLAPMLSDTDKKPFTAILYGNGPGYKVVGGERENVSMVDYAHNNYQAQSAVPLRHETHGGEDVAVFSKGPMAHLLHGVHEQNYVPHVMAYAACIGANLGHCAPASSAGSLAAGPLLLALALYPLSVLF", "assay": "potency against alkaline phosphatase TNAP – biochemical, luminescent, dose response, SAR follow-up (AID 1056)"}, "[4]": {"biological_target": "Alkaline phosphatase, placental type (Homo sapiens, UniProt P05187)", "sequence (P05187 whole entry)": "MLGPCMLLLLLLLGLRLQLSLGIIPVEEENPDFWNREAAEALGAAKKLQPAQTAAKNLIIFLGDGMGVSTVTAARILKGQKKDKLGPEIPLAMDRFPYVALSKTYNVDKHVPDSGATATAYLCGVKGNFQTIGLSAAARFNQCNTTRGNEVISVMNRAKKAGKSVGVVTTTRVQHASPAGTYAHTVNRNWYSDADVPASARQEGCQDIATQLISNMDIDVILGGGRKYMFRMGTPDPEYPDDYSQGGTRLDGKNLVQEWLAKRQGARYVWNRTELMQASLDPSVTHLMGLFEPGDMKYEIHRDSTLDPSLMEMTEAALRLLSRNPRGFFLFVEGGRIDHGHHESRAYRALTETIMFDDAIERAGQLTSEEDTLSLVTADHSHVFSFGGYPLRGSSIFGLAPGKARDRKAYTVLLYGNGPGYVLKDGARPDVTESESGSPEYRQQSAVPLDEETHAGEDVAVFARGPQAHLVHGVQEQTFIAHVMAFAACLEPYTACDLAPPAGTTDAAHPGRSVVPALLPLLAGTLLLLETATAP", "assay": "human placental alkaline phosphatase inhibition – biochemical, luminescence, confirmation (AID 1512)", "type": "functional"}, "[5]": {"biological_target": "Heat shock protein HSP 90-alpha (Homo sapiens, UniProt P07900)", "type": "functional, organism-based"}, "Caspase-3": {"biological_target": "T3, Caspase-3 (Homo sapiens, UniProt P42574)", "T3 sequence (P42574 whole entry)": "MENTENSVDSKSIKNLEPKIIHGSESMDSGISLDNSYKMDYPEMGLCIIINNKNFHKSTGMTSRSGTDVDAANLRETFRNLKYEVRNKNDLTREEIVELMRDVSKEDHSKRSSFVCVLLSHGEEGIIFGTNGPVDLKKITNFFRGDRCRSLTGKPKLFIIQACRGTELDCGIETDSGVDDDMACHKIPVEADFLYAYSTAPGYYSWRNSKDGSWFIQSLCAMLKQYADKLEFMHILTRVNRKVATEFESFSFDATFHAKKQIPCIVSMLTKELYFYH", "assay": "activators of human procaspase-3 D3A mutant – biochemical, absorbance, PC-3 D3A mutant, counter-screen for dual procaspase-3/7 activator project, dose response (AID 504328)"}, "Caspase-7": {"biological_target": "T4, Caspase-7 (Homo sapiens, UniProt P55210)", "T4 sequence (P55210 whole entry)": "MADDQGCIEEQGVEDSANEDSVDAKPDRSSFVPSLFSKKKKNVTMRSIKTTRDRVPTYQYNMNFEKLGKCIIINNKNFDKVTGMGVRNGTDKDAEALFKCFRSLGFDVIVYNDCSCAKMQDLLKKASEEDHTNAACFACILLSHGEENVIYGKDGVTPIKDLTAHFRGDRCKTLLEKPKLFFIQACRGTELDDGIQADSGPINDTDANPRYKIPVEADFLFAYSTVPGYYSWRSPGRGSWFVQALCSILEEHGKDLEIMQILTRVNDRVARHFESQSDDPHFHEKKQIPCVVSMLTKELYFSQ", "assay": "potency of procaspase-7 enzyme activation – biochemical, absorbance, human, dual procaspase-3/-7 activator project, dose response (AID 504330)"}}, "note": "Activity calls are given as the source filed them."}
{"smiles": "Cc1cc(OCC(=O)Nn2cnnc2)ccc1Br", "values": [{"measurement": "IC50", "setting": "Procathepsin L", "result": "> 59.6 µM (not active)"}, {"measurement": "IC50", "setting": "Aspartyl aminopeptidase", "result": "2.55 µM (active)"}]}
{"smiles": "Cc1nn(-c2cc(C(F)(F)F)ccc2Cl)c2nc(C(F)(F)F)nc(O)c12", "values": [{"measurement": "IC50", "setting": "[1]", "result": "22.5 µM (active)"}]}
{"smiles": "CC(C)Oc1cccc(C(=O)NC(=S)Nc2cccc(C(F)(F)F)c2)c1", "values": [{"measurement": "IC50", "setting": "Beta-galactosidase", "result": "> 66.6 µM (inactive)"}]}
{"smiles": "O=C(NCc1ccccc1Cl)C1CCN(S(=O)(=O)c2cccc3nonc23)CC1", "values": [{"measurement": "IC50", "setting": "cells", "result": "27.2 µM (active)"}]}
{"smiles": "CN(Cc1nc(O)c2ccccc2n1)C(=O)c1cc(C2CC2)nn1-c1ccccc1", "values": [{"measurement": "IC50", "setting": "cells", "result": "21.6 µM (active)"}]}
{"smiles": "O=C(c1cc(-c2ccc(Cl)cc2Cl)n[nH]1)N1CCCC1", "values": [{"measurement": "IC50", "setting": "[2]", "result": "> 100 µM (not active)"}, {"measurement": "IC50", "setting": "[3]", "result": "6.57 µM (active)"}, {"measurement": "IC50", "setting": "[4]", "result": "> 100 µM (inactive)"}]}
{"smiles": "COc1cccc(-c2cc(C(=O)Nn3cnnc3)c3ccccc3n2)c1", "values": [{"measurement": "IC50", "setting": "Procathepsin L", "result": "> 59.6 µM (not active)"}, {"measurement": "IC50", "setting": "Aspartyl aminopeptidase", "result": "1.87 µM (active)"}]}
{"smiles": "O=C(Oc1ccc(Cl)c2cccnc12)c1cccnc1", "values": [{"measurement": "IC50", "setting": "Beta-galactosidase", "result": "> 66.6 µM (inactive)"}, {"measurement": "AC50", "setting": "[5]", "result": "8.18 µM (active)"}]}
{"smiles": "COC(=O)C1=NN(c2ccc(Cl)cc2)C2C(=O)N(c3ccccc3OC)C(=O)C12", "note": "(stereo unspecified)", "values": [{"measurement": "EC50", "setting": "Caspase-3", "result": "> 85.3 µM (inactive)"}, {"measurement": "EC50", "setting": "Caspase-7", "result": "> 85.3 µM (inactive)"}]}
{"smiles": "CCOC(=O)c1c(-c2ccc(C)o2)csc1NC(=S)NC(=O)c1ccccc1Br", "values": [{"measurement": "IC50", "setting": "[1]", "result": "37.3 µM (active)"}]}
